Measured values taken from patent US12264173B2 (GILEAD SCIENCES, INC., priority 2020, dated 2025).
Read-outs that look alike come from different tables or passages of the source.

Key:
Type in all cases: cell-based
[1] = system: Dengue serotype 2 New Guinea C (NGC) strain; experiment: DENV-2 Huh-7 EC50 (qPCR in Huh7 cells)
Procedure: Huh7 (Human hepatocarcinoma 7) cells were maintained in 10% FCS-containing DMEM complete media. On the day of the assay, cells were trypsinized (0.1% Trypsin-EDTA), washed and infected for 2 hours in serum-free DMEM with Dengue serotype 2 New Guinea C (NGC) strain at MOI=0.1 with gentle agitation at 37° C. After 2 hours, cells were washed with serum-free media and suspended in 10% FCS-containing DMEM (Gibco, supplemented with sodium pyruvate, NEAA, Penicillin-Streptomycin). 10^5 cells were plated in triplicate in 96-well plates with compounds dispensed at graded doses (Hewlett-Packard D300 Digital Dispenser). All wells were normalized to 0.25% DMSO. At 48 hours, cells were washed with 1×PBS and all supernatants removed. Total RNA was extracted using RNEasy 96 plates (Qiagen) and used to generate first-strand cDNA using XLT cDNA 5× Supermix (QuantaBio). cDNA was used as a template in a Taqman qPCR duplex reaction specific to DENV2 viral and GAPDH gene expression. EC50 values were determined using Prism Graphpad software, with normalization to a positive control and no compound negative control wells.

DENV2 replicon = experiment: DENV-2 Huh-7 Rep EC50 (replicon luminescence)
Summary of the method: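 EC50 derived from luminescence dose-response, normalised to DMSO-only 0% inhibition wells, after 1.5 h with EnduRen substrate. Compounds were first exposed for 48 h at 37° C to DENV2 replicon Huh-7 cells (5,000/well).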

RSV strain A2 = experiment: microbe, parasite or virus in culture; conditions: Table 3, HEp-2 cells, RSV A2, 4 days, read-out: RSV HEp-2 EC50
Summary of the method: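 Cytopathic-effect protection assay: HEp-2 cells (50,000/mL) infected with pre-titered RSV A2 onto 3-fold serial compound dilutions, incubated 4 days at 37° C. Cell viability read by CellTiter-Glo luminescence; percent inhibition derived against 0% and 100% virus-inhibition controls.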

RSV A2 = experiment: RSV NHBE EC50 (RSV A2 antiviral assay in NHBE cells); conditions: read-out: RSV NHBE EC50
Summary of the method: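 Antiviral protection in primary bronchial epithelial cells: RSV A2 (1×10^4.5 tissue culture infectious doses/mL) added right after compound, in 3-fold dilutions at 0.05% DMSO, to 7,500 attached cells per well. Cytopathic loss quantified as CellTiter-Glo luminescence after 4-day incubation at 37 °C.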

[2] = Dengue virus, DENV2, Huh-7, Table 3, Huh7 cells, 48 hours, read-out: DENV-2 Huh7 EC50
[3] = Dengue virus, DENV2, Huh-7, 48 h, read-out: DENV-2 REP Huh7 EC50
[4] = human respiratory syncytial virus, HEp-2, 96 h
[5] = human respiratory syncytial virus, NHBE, 96 h, Table 3, NHBE cells, RSV A2, 4 days
[6] = Dengue virus, Huh-7, read-out: DENV Huh7 EC50
[7] = human respiratory syncytial virus, NHBE, Table 5 comparative activity, 2',3'-OH vs -OC(O)iPr
[8] = Table 3, Huh7 cells, 48 hours, read-out: DENV-2 Huh7 EC50
[9] = Table 3, Huh-7 DENV2 replicon cells, 48 hours, read-out: DENV-2 REP Huh7 EC50
[10] = Table 3, NHBE cells, RSV A2, 4 days

Compound	EC50 [1, 2] [nM]	EC50 (DENV2 replicon; [3]) [nM]	EC50 (RSV strain A2; [4]) [nM]	EC50 (RSV A2; [5]) [nM]	EC50 [1, 6] [nM]	EC50 (DENV2 replicon; Dengue virus, DENV2, Huh-7, read-out: DENV Rep EC50) [nM]	EC50 (RSV A2; [7]) [nM]	EC50 [1, 8] [nM]	EC50 (DENV2 replicon; [9]) [nM]	EC50 (RSV strain A2) [nM]	EC50 (RSV A2; [10]) [nM]
CCC(CC)COC(=O)[C@H](C)N[P@](=O)(OC[C@@]1(C#N)O[C@@H](c2ccc3c(N)ncnn23)C(OC(=O)C(C)C)[C@@H]1OC(=O)C(C)C)Oc1ccccc1 (stereo in doubt) [Example 86, (2R,3S,4R,5S)-5-(4-aminopyrrolo[2,1-f][1,2,4]triazin-7-yl)-2-cyano-2-((((S)-(((S)-1-(2-ethylbutoxy)-1-oxopropan-2-yl)amino)(phenoxy)phosphoryl)oxy)methyl) tetrahydrofuran-3,4-diyl bis(2-methylpropanoate)]	1410	8950	100	24	–	–	–	–	–	–	–
CCC(=O)O[C@H]1[C@H](c2ccc3c(N)ncnn23)O[C@](C#N)(CO[P@@](=O)(N[C@@H](C)C(=O)OC2CCCCC2)Oc2ccccc2)[C@H]1OC(=O)CC [Example 82, (2R,3S,4S,5S)-5-(4-aminopyrrolo[2,1-f][1,2,4]triazin-7-yl)-2-cyano-2-((((S)-(((S)-1-(cyclohexyloxy)-1-oxopropan-2-yl)amino)(phenoxy)phosphoryl)oxy)methyl) tetrahydrofuran-3,4-diyl dipropionate]	3980	7630	58	32	–	–	–	–	–	–	–
CCOC(=O)[C@H](C)N[P@](=O)(OC[C@@]1(C#N)O[C@@H](c2ccc3c(N)ncnn23)[C@H](OC(=O)C(C)C)[C@@H]1OC(=O)C(C)C)Oc1ccccc1 (single isomer, unassigned) [Example 144]	1180	6170	34	22	1280	6170	22	–	–	–	–
CCC(=O)O[C@H]1[C@H](c2ccc3c(N)ncnn23)O[C@](C#N)(CO[P@@](=O)(N[C@@H](C)C(=O)OC(C)C)Oc2ccccc2)[C@H]1OC(=O)CC [Example 90, (2R,3S,4S,5S)-5-(4-Aminopyrrolo[2,1-f][1,2,4]triazin-7-yl)-2-cyano-2-((((S)-(((S)-1-isopropoxy-1-oxopropan-2-yl)amino)(phenoxy)phosphoryl)oxy)methyl) tetrahydrofuran-3,4-diyl dipropionate]	2160	24300	109	45	–	–	–	–	–	–	–
CC(C)C(=O)O[C@H]1[C@H](c2ccc3c(N)ncnn23)O[C@](C#N)(COP(=O)(N[C@@H](C)C(=O)OC2COC2)Oc2ccccc2)[C@H]1OC(=O)C(C)C (single isomer, unassigned) [Example 186]	–	–	–	–	–	–	–	1730	4220	41	4
CC(C)C(=O)O[C@H]1[C@H](c2ccc3c(N)ncnn23)O[C@](C#N)(CO[P@@](=O)(N[C@@H](C)C(=O)OC2CCCCC2)Oc2ccccc2)[C@H]1OC(=O)C(C)C [Example 77, (2R,3S,4S,5S)-5-(4-aminopyrrolo[2,1-f][1,2,4]triazin-7-yl)-2-cyano-2-((((S)-(((S)-1-(cyclohexyloxy)-1-oxopropan-2-yl)amino)(phenoxy)phosphoryl)oxy)methyl) tetrahydrofuran-3,4-diyl bis(2-methylpropanoate)]	1490	5390	57	24	–	–	–	–	–	–	–
CCC(=O)O[C@H]1[C@H](c2ccc3c(N)ncnn23)O[C@](C#N)(CO[P@@](=O)(N[C@@H](C)C(=O)OC)Oc2ccccc2)[C@H]1OC(=O)CC (single isomer, unassigned) [Example 143]	3130	5570	92	18	–	–	–	–	–	–	–
COC(=O)[C@H](C)N[P@](=O)(OC[C@@]1(C#N)O[C@@H](c2ccc3c(N)ncnn23)[C@H](OC(=O)C(C)C)[C@@H]1OC(=O)C(C)C)Oc1ccccc1 (single isomer, unassigned) [Example 140]	1220	5270	42	14	1210	–	14	–	–	–	–
CC(C)C(=O)O[C@H]1[C@H](c2ccc3c(N)ncnn23)O[C@](C#N)(COP(=O)(N[C@@H](C)C(=O)OCC2CCOCC2)Oc2ccccc2)[C@H]1OC(=O)C(C)C (single isomer, unassigned) [Example 183]	–	–	–	–	–	–	–	1110	3650	69	50
COC(=O)[C@H](C)N[P@](=O)(OC[C@@]1(C#N)O[C@@H](c2ccc3c(=N)n(COP(=O)(O)O)cnn23)[C@H](OC(=O)C(C)C)[C@@H]1OC(=O)C(C)C)Oc1ccccc1 [Example 259, (2R,3S,4S,5S)-2-cyano-5-(4-imino-3-((phosphonooxy)methyl)-3,4-dihydropyrrolo[2,1-f][1,2,4]triazin-7-yl)-2-((((S)-(((S)-1-methoxy-1-oxopropan-2-yl)amino)(phenoxy)phosphoryl)oxy)methyl)tetrahydrofuran-3,4-diyl bis(2-methylpropanoate)]	1860	5360	36	11	–	–	–	–	–	–	–
CC(C)C(=O)O[C@H]1[C@H](c2ccc3c(N)ncnn23)O[C@](C#N)(COP(=O)(N[C@@H](C)C(=O)OCC2COC2)Oc2ccccc2)[C@H]1OC(=O)C(C)C (single isomer, unassigned) [Example 201]	–	–	–	–	–	–	–	317	7690	92	14
CCC(=O)O[C@H]1[C@H](c2ccc3c(N)ncnn23)O[C@](C#N)(CO[P@@](=O)(N[C@@H](C)C(=O)OCC2CC2)Oc2ccccc2)[C@H]1OC(=O)CC [Example 99]	–	–	–	–	–	–	–	–	6310	58	14
